# Where “and” joins values, the source holds several entries; their conditions need not be identical. Identical values can stand only once.
# Tests used:
# porcine pepsin = molecular target: T1, porcine pepsin (Sus scrofa, UniProt P00791); test: Peptide stability in simulated gastric fluid (SGF); assay type: in vitro ADME; settings: for SGF stability, Residual peptide Average / SGF stability, Residual peptide: after 8 h vs 0 h (TIC); for SGF stability, Residual peptide Average: average of R1-R3; for SGF stability, Residual peptide: single replicates R1-R3; for remaining at 8 h: simulated gi fluid, 37 °C, pH 1.2, read-out: Proteolytic stability: SGF (8 h) % remaining
# T1 construct: 0.32 g of porcine pepsin (Sigma-Aldrich, P7125) was dissolved under gentle agitation; purchased Sigma-Aldrich P7125
# T1 sequence (P00791 60-385): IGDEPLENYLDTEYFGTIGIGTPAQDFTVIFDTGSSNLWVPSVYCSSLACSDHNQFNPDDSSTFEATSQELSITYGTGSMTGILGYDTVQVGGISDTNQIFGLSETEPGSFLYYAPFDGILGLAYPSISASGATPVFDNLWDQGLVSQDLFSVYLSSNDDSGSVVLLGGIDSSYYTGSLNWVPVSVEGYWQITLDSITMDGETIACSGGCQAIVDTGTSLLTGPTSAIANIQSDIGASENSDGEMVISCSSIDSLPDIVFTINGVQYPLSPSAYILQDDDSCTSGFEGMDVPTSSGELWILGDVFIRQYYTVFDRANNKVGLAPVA
# How it was run: (§1)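 Peptide from a 1 mM DMSO stock was added to fluid pre-warmed at 37 °C. SGF was pH 1.2 NaCl with porcine pepsin (0.32 g per 100 ml), and SIF was pH 6.8 potassium phosphate with porcine pancreatin (1 g per 100 ml). Supernatant peptide was quantified by LC–MS, with residual expressed as T1/T0.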
# [1] = Passive artificial membrane permeability (PAMPA); settings: for PAMPA permeability: % permeability: 50 μM, 12–18 h, acceptor concentration relative to equilibrium; for Papp at 50 μM / Permeability% Average / Permeability% R1 / Permeability% R3: PAMPA; for Papp at 50 μM: pH 7.4; for Permeability% Average: average of R1-R3; for Permeability% R1: replicate R1; for Permeability% R1 / Permeability% R3: TIC of top well sample relative to sample at theoretical equilibrium; for Permeability% R3: replicate R3
# [2] = Peptide stability in simulated intestinal fluid (SIF); assay type: in vitro ADME, porcine; settings: simulated gi fluid; 8 h, 37 °C, pH 6.8; read-out: Proteolytic stability: SIF (8 h) % remaining
# How it was run: as §1
# porcine pancreatin = test: as above; assay type: in vitro ADME; settings: after 8 h vs 0 h (TIC); for SIF stability, Residual peptide Average: average of R1-R3
# How it was run: as §1
# human α-thrombin = human α-thrombin (Homo sapiens, UniProt P00734); test: Protease inhibition, Ki for human α-thrombin (fluorogenic substrate Z-Gly-Gly-Arg-AMC); assay type: biochemical; settings: replicates R1-R3
# How it was run: (§2)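 Inhibition was measured as AMC fluorescence from 50 μM substrate, monitored for 30 min at 25 °C, relative to a peptide-free control. Human and rat enzymes were present at 2 nM and 3 nM final, respectively, in 50 mM Tris-HCl pH 7.4, 150 mM NaCl, 10 mM MgCl2, 1 mM CaCl2. Ki derives from fitted IC50 via Cheng–Prusoff.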
# [3] = Metabolic stability in rat liver microsomes (RLMs); settings: rat, microsomes
# rat α-thrombin = molecular target: T2, rat α-thrombin (Rattus norvegicus, UniProt P18292); test: Protease inhibition, Ki for rat α-thrombin (fluorogenic substrate Z-Gly-Gly-Arg-AMC); assay type: biochemical; settings: replicates R1-R3
# T2 construct: rat α-thrombin (Molecular Innovations) were used at final concentrations of 2 nM and 3 nM; purchased Molecular Innovations
# How it was run: as §2
# [4] = peptide 1.33E+02 uM, slope of proteolytic substrate cleavage over time
# [5] = CL (ul/min/mg protein) R1, RLM CL, replicate R1
# [6] = CL (ul/min/mg protein) R2, RLM CL, replicate R2
# [7] = CL (ul/min/mg protein) R3, RLM CL, replicate R3
# [8] = Half Life (min) R1, RLM metabolic stability, replicate R1, 0-60 min
# [9] = Half Life (min) R2, RLM metabolic stability, replicate R2, 0-60 min
# [10] = Half Life (min) R3, RLM metabolic stability, replicate R3, 0-60 min
# [11] = Metabolic stability: Half life T1/2 (min), RLMs, mean and SD, three measurements
# [12] = Metabolic stability: RLM CL (ul/min/mg), RLMs, mean and SD, three measurements
smiles,measurement,setting,value
O=C1C[C@H]2CCCN2C(=O)[C@H](Cc2ccccn2)NC(=O)[C@@H](NC(=O)c2ccc(Cl)s2)CSCCS(=O)(=O)CCSCCN1 [compound 12],"SGF stability, Residual peptide Average",porcine pepsin,99.15
same,"SGF stability, Residual peptide",porcine pepsin,102.14 and 93.27 and 102.05
same,remaining at 8 h,porcine pepsin,99 ± 5%
same,PAMPA permeability: % permeability,[1],0.35 ± 0.03%
same,Papp at 50 μM,[1],0.0229 ×10⁻⁶ cm/s
same,Permeability% Average,[1],0.35%
same,Permeability% R1,[1],0.32%
same,Permeability% R3,[1],0.38%
same,remaining at 8 h,[2],96 ± 6%
same,"SIF stability, Residual peptide Average",porcine pancreatin,95.62
same,"Human alpha thrombin inhibition, slope normalized to DMSO",human α-thrombin; peptide 1.02E-03 uM,102.9 and 99.8 and 96.6
same,"Human alpha thrombin inhibition, slope normalized to DMSO",human α-thrombin; peptide 1.04E+00 uM,56.9 and 56.3 and 49.2
same,"Human alpha thrombin inhibition, slope normalized to DMSO",human α-thrombin; peptide 1.27E-04 uM,90.5 and 95.3 and 95.8
same,"Human alpha thrombin inhibition, slope normalized to DMSO",human α-thrombin; peptide 1.30E-01 uM,71.9 and 86.4 and 78.8
same,"Human alpha thrombin inhibition, slope normalized to DMSO",human α-thrombin; [4],6.4 and 9.7 and 4.3
same,"Human alpha thrombin inhibition, slope normalized to DMSO",human α-thrombin; peptide 1.63E-02 uM,99.5 and 89.1 and 90.1
same,"Human alpha thrombin inhibition, slope normalized to DMSO",human α-thrombin; peptide 1.67E+01 uM,16.0 and 14.1 and 9.4
same,"Human alpha thrombin inhibition, slope normalized to DMSO",human α-thrombin; peptide 2.03E-03 uM,98.8 and 94.5 and 92.3
same,"Human alpha thrombin inhibition, slope normalized to DMSO",human α-thrombin; peptide 2.08E+00 uM,52.9 and 44.1 and 36.2
same,"Human alpha thrombin inhibition, slope normalized to DMSO",human α-thrombin; peptide 2.54E-04 uM,106.8 and 94.8 and 97.0
same,"Human alpha thrombin inhibition, slope normalized to DMSO",human α-thrombin; peptide 2.60E-01 uM,78.1 and 77.3 and 67.5
same,"Human alpha thrombin inhibition, slope normalized to DMSO",human α-thrombin; peptide 3.18E-05 uM,100.4 and 97.0 and 90.2
same,"Human alpha thrombin inhibition, slope normalized to DMSO",human α-thrombin; peptide 3.26E-02 uM,100.0 and 89.9 and 87.8
same,"Human alpha thrombin inhibition, slope normalized to DMSO",human α-thrombin; peptide 3.33E+01 uM,12.7 and 10.3 and 16.0
same,"Human alpha thrombin inhibition, slope normalized to DMSO",human α-thrombin; peptide 4.07E-03 uM,92.6 and 96.1 and 91.8
same,"Human alpha thrombin inhibition, slope normalized to DMSO",human α-thrombin; peptide 4.17E+00 uM,39.5 and 36.2 and 29.7
same,"Human alpha thrombin inhibition, slope normalized to DMSO",human α-thrombin; peptide 5.09E-04 uM,101.4 and 93.9 and 96.1
same,"Human alpha thrombin inhibition, slope normalized to DMSO",human α-thrombin; peptide 5.21E-01 uM,64.5 and 65.3 and 59.0
same,"Human alpha thrombin inhibition, slope normalized to DMSO",human α-thrombin; peptide 6.36E-05 uM,103.2 and 97.0 and 93.0
same,"Human alpha thrombin inhibition, slope normalized to DMSO",human α-thrombin; peptide 6.51E-02 uM,93.3 and 87.6 and 88.6
same,"Human alpha thrombin inhibition, slope normalized to DMSO",human α-thrombin; peptide 6.67E+01 uM,9.5 and 8.1 and 4.7
same,"Human alpha thrombin inhibition, slope normalized to DMSO",human α-thrombin; peptide 8.14E-03 uM,100.4 and 99.0 and 91.1
same,"Human alpha thrombin inhibition, slope normalized to DMSO",human α-thrombin; peptide 8.33E+00 uM,24.1 and 22.7 and 13.9
same,microsomal CLint,[3]; [5],90.2 µL/min/mg
same,microsomal CLint,[3]; [6],68.8 µL/min/mg
same,microsomal CLint,[3]; [7],72.9 µL/min/mg
same,half-life,[3]; [8],15.4 min
same,half-life,[3]; [9],20.1 min
same,half-life,[3]; [10],19 min
same,half-life,[3]; [11],18.2 ± 2 min
same,microsomal CLint,[3]; [12],77 ± 9 µL/min/mg
same,microsomal CLint,"[3]; Metabolic stability: RLM CL Average, summary table, average of R1-R3",77.3 µL/min/mg
same,microsomal CLint,"[3]; Metabolic stability: RLM CL R1, summary table, rounded, replicate R1",90.2 µL/min/mg
same,microsomal CLint,"[3]; Metabolic stability: RLM CL R2, summary table, rounded, replicate R2",68.8 µL/min/mg
same,microsomal CLint,"[3]; Metabolic stability: RLM CL R3, summary table, rounded, replicate R3",73 µL/min/mg
same,"Rat alpha thrombin inhibition, slope normalized to DMSO",rat α-thrombin; [4],4.6 and 7.6 and 2.5
same,"Rat alpha thrombin inhibition, slope normalized to DMSO",rat α-thrombin; peptide 1.67E+01 uM,7.9 and 9.3 and 7.8
same,"Rat alpha thrombin inhibition, slope normalized to DMSO",rat α-thrombin; peptide 2.08E+00 uM,26.1 and 28.9 and 26.4
same,"Rat alpha thrombin inhibition, slope normalized to DMSO",rat α-thrombin; peptide 3.33E+01 uM,4.7 and 8.8 and 5.5
same,"Rat alpha thrombin inhibition, slope normalized to DMSO",rat α-thrombin; peptide 4.17E+00 uM,21.7 and 23.0 and 20.8
same,"Rat alpha thrombin inhibition, slope normalized to DMSO",rat α-thrombin; peptide 6.67E+01 uM,5.5 and 8.4 and 4.7
same,"Rat alpha thrombin inhibition, slope normalized to DMSO",rat α-thrombin; peptide 8.33E+00 uM,11.6 and 14.0 and 11.0
O=C1NCCSCc2cccc(n2)CSC[C@H](NC(=O)c2ccc(Cl)s2)C(=O)N[C@@H](CO)C(=O)NCc2cccc1c2 [compound 27],"SGF stability, Residual peptide Average",porcine pepsin,98.89
same,"SGF stability, Residual peptide",porcine pepsin,99.89 and 99.67 and 97.09
same,remaining at 8 h,porcine pepsin,99 ± 2%
same,PAMPA permeability: % permeability,[1],2.5 ± 1.2%
same,Papp at 50 μM,[1],0.151 ×10⁻⁶ cm/s
same,Permeability% Average,[1],2.5%
same,Permeability% R1,[1],3.72%
same,Permeability% R3,[1],2.35%
same,remaining at 8 h,[2],92 ± 9%
same,"SIF stability, Residual peptide Average",porcine pancreatin,91.64
same,"SIF stability, Residual peptide",porcine pancreatin; single replicates R1-R3,89.51 and 84.30 and 101.11
same,"Human alpha thrombin inhibition, slope normalized to DMSO",human α-thrombin; peptide 1.02E-03 uM,98.3 and 96.5 and 99.8
same,"Human alpha thrombin inhibition, slope normalized to DMSO",human α-thrombin; peptide 1.04E+00 uM,84.1 and 76.8 and 79.3
same,"Human alpha thrombin inhibition, slope normalized to DMSO",human α-thrombin; peptide 1.27E-04 uM,100.0 and 98.1 and 101.1
same,"Human alpha thrombin inhibition, slope normalized to DMSO",human α-thrombin; peptide 1.30E-01 uM,95.4 and 96.3 and 96.1
same,"Human alpha thrombin inhibition, slope normalized to DMSO",human α-thrombin; [4],7.7 and 17.1 and 13.6
same,"Human alpha thrombin inhibition, slope normalized to DMSO",human α-thrombin; peptide 1.63E-02 uM,97.0 and 96.5 and 98.2
same,"Human alpha thrombin inhibition, slope normalized to DMSO",human α-thrombin; peptide 1.67E+01 uM,27.2 and 28.7 and 30.2
same,"Human alpha thrombin inhibition, slope normalized to DMSO",human α-thrombin; peptide 2.03E-03 uM,100.7 and 96.1 and 100.3
same,"Human alpha thrombin inhibition, slope normalized to DMSO",human α-thrombin; peptide 2.08E+00 uM,72.7 and 80.3 and 72.0
same,"Human alpha thrombin inhibition, slope normalized to DMSO",human α-thrombin; peptide 2.54E-04 uM,101.2 and 95.7 and 100.6
same,"Human alpha thrombin inhibition, slope normalized to DMSO",human α-thrombin; peptide 2.60E-01 uM,93.2 and 89.7 and 91.7
same,"Human alpha thrombin inhibition, slope normalized to DMSO",human α-thrombin; peptide 3.18E-05 uM,102.0 and 95.9 and 100.7
same,"Human alpha thrombin inhibition, slope normalized to DMSO",human α-thrombin; peptide 3.26E-02 uM,97.3 and 93.9 and 91.1
same,"Human alpha thrombin inhibition, slope normalized to DMSO",human α-thrombin; peptide 3.33E+01 uM,17.1 and 15.9 (2×)
same,"Human alpha thrombin inhibition, slope normalized to DMSO",human α-thrombin; peptide 4.07E-03 uM,99.1 and 96.8 and 105.4
same,"Human alpha thrombin inhibition, slope normalized to DMSO",human α-thrombin; peptide 4.17E+00 uM,57.2 and 53.3 and 58.0
same,"Human alpha thrombin inhibition, slope normalized to DMSO",human α-thrombin; peptide 5.09E-04 uM,99.5 and 108.3 and 102.0
same,"Human alpha thrombin inhibition, slope normalized to DMSO",human α-thrombin; peptide 5.21E-01 uM,89.3 and 86.3 and 89.6
same,"Human alpha thrombin inhibition, slope normalized to DMSO",human α-thrombin; peptide 6.36E-05 uM,101.1 and 95.4 and 95.5
same,"Human alpha thrombin inhibition, slope normalized to DMSO",human α-thrombin; peptide 6.51E-02 uM,97.1 and 92.8 and 96.9
same,"Human alpha thrombin inhibition, slope normalized to DMSO",human α-thrombin; peptide 6.67E+01 uM,14.5 and 13.5 and 16.4
same,"Human alpha thrombin inhibition, slope normalized to DMSO",human α-thrombin; peptide 8.14E-03 uM,99.5 and 100.5 and 98.6
same,"Human alpha thrombin inhibition, slope normalized to DMSO",human α-thrombin; peptide 8.33E+00 uM,48.2 and 47.8 and 48.5
same,microsomal CLint,[3]; [5],48.3 µL/min/mg
same,microsomal CLint,[3]; [6],57.4 µL/min/mg
same,microsomal CLint,[3]; [7],60.2 µL/min/mg
same,half-life,[3]; [8],28.7 min
same,half-life,[3]; [9],24.2 min
same,half-life,[3]; [10],23 min
same,half-life,[3]; [11],25 ± 2 min
same,microsomal CLint,[3]; [12],55 ± 5 µL/min/mg
same,"Rat alpha thrombin inhibition, slope normalized to DMSO",rat α-thrombin; [4],3.9 and 4.8 and 10.9
same,"Rat alpha thrombin inhibition, slope normalized to DMSO",rat α-thrombin; peptide 1.67E+01 uM,9.1 and 8.9 and 16.0
same,"Rat alpha thrombin inhibition, slope normalized to DMSO",rat α-thrombin; peptide 2.08E+00 uM,42.2 and 39.9 and 27.8
same,"Rat alpha thrombin inhibition, slope normalized to DMSO",rat α-thrombin; peptide 3.33E+01 uM,5.4 and 4.9 and 14.0
same,"Rat alpha thrombin inhibition, slope normalized to DMSO",rat α-thrombin; peptide 4.17E+00 uM,24.5 and 25.5 and 24.4
same,"Rat alpha thrombin inhibition, slope normalized to DMSO",rat α-thrombin; peptide 6.67E+01 uM,4.0 and 4.6 and 11.6
same,"Rat alpha thrombin inhibition, slope normalized to DMSO",rat α-thrombin; peptide 8.33E+00 uM,18.9 and 18.5 and 19.5
